Experimental data from publication PMC10683482, “Offsetting Low-Affinity Carbohydrate Binding with Covalency to Engage Sugar-Specific Proteins for Tumor-Immune Proximity Induction” (ACS Central Science, 2023).

Tests used:
[1] = test system: PSMA-expressing target cells (Hek-PSMA, LNCaP, C4-2); assay: ADCP assay with anti-23F and U937 monocytes; assay type: cell-based, human; details: 8 μM compound with 4 μM anti-23F 24 h; 1 h, 37 °C; flow cytometry
Procedure: Figure 5 Functional analysis of PSMA-targeting SuFEx cARMs. A. Chemical structure of the functional GU cARM molecule used for PSMA targeting. B. Confocal (top) and fluorescent imaging (bottom) of Hek-PSMA cells treated with anti-23F only or anti-23F antibody pre-incubated with rhamnose-SO2F-cARM 14. C. Jurkat activation assay evaluation of 14 directly in polyclonal human IgG. Each cARM/ARM (9 μM) was incubated with polyclonal human IgG (230 μM) overnight and then added to pre-plated Hek-P cells (50,000 cells). To this cell solution, luciferase expressing jurkat cells were added and incubated for 24 hours. Activation of jurkat cells was determined by measuring luciferase expression with a BioGlo assay kit. D. ADCP assays using various PSMA-expressing model and bonafide cancer cell lines. Each cARM/ARM (8 μM) was incubated with anti-23F (4 μM) overnight followed by addition to target cells (150,000 cells). Next, IFN-γ activated monocytes (150,000 cells) were added and incubated for 1 hour at 37 °C. ADCP was determined via flow cytometry.
Finally, the capacity of Rha-cARMs to induce ADCP of multiple target cell lines (varying in PSMA expression) was evaluated. ADCP represents a major mode of antitumor monocyte/macrophage immunotherapeutic function, also invoked by several FDA-approved monoclonal antibody therapies. […]

[2] = test system: Hek-PSMA cells; assay: Microscopy of induced antibody recruitment (opsonization); assay type: cell-based, human; details: 8 μM compound with 4 μM anti-23F 24 h
Procedure: To test the antitumor immune function of rhamnose SO2F cARMs, GU was again incorporated as a TBD for PSMA targeting (compound 14, Figure 5A, Scheme S5). The ability to selectively induce opsonization of model prostate cancer cells via monoclonal anti-23F was first evaluated using fluorescence microscopy (Figure 5B, Figure S12). Compound 14 (8 μM) was incubated with anti-23F (4 μM) for 24 h followed by addition to PSMA expressing Hek-PSMA cells. Following a 20 min incubation, fluorescent secondary antibody was added. […] The addition of rhamnose competitor during the antibody labeling reaction again inhibited covalent antibody engagement and opsonization of target cells (Figure S12).
Figure 5 Functional analysis of PSMA-targeting SuFEx cARMs. A. Chemical structure of the functional GU cARM molecule used for PSMA targeting. B. Confocal (top) and fluorescent imaging (bottom) of Hek-PSMA cells treated with anti-23F only or anti-23F antibody pre-incubated with rhamnose-SO2F-cARM 14. C. Jurkat activation assay evaluation of 14 directly in polyclonal human IgG. Each cARM/ARM (9 μM) was incubated with polyclonal human IgG (230 μM) overnight and then added to pre-plated Hek-P cells (50,000 cells). […] Activation of jurkat cells was determined by measuring luciferase expression with a BioGlo assay kit. […] ADCP was determined via flow cytometry. […]

C[C@@H]1O[C@@H](OCc2cn(CCc3cn(C(=O)OCCNC(=O)CCCCCNC(=O)CCCCCNC(=O)CCCCCNC(=O)NCCCC[C@H](NC(=O)N[C@@H](CCC(=O)O)C(=O)O)C(=O)O)cn3)nn2)[C@H](O)[C@H](O)[C@H]1O [compound 10]
induction of ADCP [1]: nonfunctional

C[C@@H]1O[C@@H](OCc2cn(CCCNC(=O)OCCNC(=O)CCCCCNC(=O)CCCCCNC(=O)CCCCCNC(=O)NCCCC[C@H](NC(=O)N[C@@H](CCC(=O)O)C(=O)O)C(=O)O)nn2)[C@H](O)[C@H](O)[C@H]1O [compound 11]
induction of ADCP [1]: failure | opsonization of target cells [2]: failed to opsonize target cells
